# In patent publication US8975290B2, “Methods and compositions for enhancing an immune response, blocking monocyte migration, amplifying vaccine immunity and inhibiting tumor growth and metastasis” (Colorado State University Research Foundation, priority 2013, dated 2015):
# Read-outs that look alike come from different tables or passages of the source.
# Columns and labels:
# [1] = cited from earlier work
# [2] = test system: human monocyte cell line THP-1; test: Boyden chamber assay, human monocyte migration in response to a CCL2 (MCP-1) gradient; assay type: cell-based; settings: dose dependent, FIG. 1 (Losartan), FIG. 3 (Ondansetron)
# Description: The Boyden chamber assay is based on a chamber of two medium-filled compartments separated by a microporous membrane. In general, cells are placed in the upper compartment and are allowed to migrate through the pores of the membrane into the lower compartment, in which chemotactic agents are present. After an appropriate incubation time, the membrane between the two compartments is fixed and stained, and the number of cells that have migrated to the lower side of the membrane is determined. Experiments using this assay were performed as described in Mitchell et al. (2012) Int. Immunopharmacol. 15: 357-363 to assess the migration of monocytes. […] A Boyden chamber assay was performed (as described in Mitchell et al. (2012) Int. Immunopharmacol, supra) to assess the migration of human monocytes (i.e., the human monocyte cell line THP-1) in response to a CCL2 (MCP-1) gradient and to assess the ability of Ondansetron to inhibit monocyte migration in vitro.
# [3] = test system: dog monocytes; test: Boyden chamber assay, dog monocyte migration in response to a CCL2 (MCP-1) gradient; assay type: cell-based
# Description: The Boyden chamber assay is based on a chamber of two medium-filled compartments separated by a microporous membrane. In general, cells are placed in the upper compartment and are allowed to migrate through the pores of the membrane into the lower compartment, in which chemotactic agents are present. After an appropriate incubation time, the membrane between the two compartments is fixed and stained, and the number of cells that have migrated to the lower side of the membrane is determined. Experiments using this assay were performed as described in Mitchell et al. (2012) Int. Immunopharmacol. 15: 357-363 to assess the migration of monocytes.
# [4] = test system: inflammatory monocytes; test: Footpad inflammation-induced monocyte migration assay (flow cytometry of draining popliteal lymph nodes); assay type: in vivo; settings: mice, 24 h after vaccination, vs vaccine only
# Description: Footpad inflammation-induced monocyte migration assays were performed as previously described (Mitchell et al. (2012), J. Immunology 189: 5612-5621) to determine whether Ondansetron inhibits monocyte migration in vivo in mice. Briefly, two groups of mice (n=4 per group) were injected with 50 μl of liposomal vaccine adjuvant in one footpad. The first group of mice was treated by injection of 3 mg/kg Ondansetron administered IP at the time of footpad injection and the Ondansetron injections were repeated 12, 24, and 36 hours following footpad injection. […] The third group received neither the vaccine nor the Ondansetron. Inflammatory monocyte migration to the draining popliteal lymph nodes was assessed in all three groups of mice via flow cytometry (as described in Mitchell et al. (2012), J. Immunology, supra) 24 hours following vaccination.
# Briefly, two groups of mice (n=4 per group) were vaccinated in the right rear footpad. […] Inflammatory monocyte migration to the draining popliteal lymph nodes was assessed in all three groups of mice via flow cytometry (as described in Mitchell et al. (2012), J. Immunology, supra) 24 hours following vaccination.
# [5] = test system: monocytes; test: Boyden chamber assay on blood samples of Losartan-treated dogs; assay type: in vivo
# [6] = test system: ovalbumin; test: Anti-ovalbumin antibody titers after ovalbumin vaccination (humoral immunity); assay type: in vivo; settings: mice, boost at day 10, vs vaccine only
# Description: Briefly, two groups of mice (n=5) were vaccinated with 5 μg of ovalbumin. […] The second group of mice received no additional treatment following vaccination. Second vaccinations were repeated 10 days following the initial vaccinations.
# To assess the effects of Ondansetron on humoral immunity, mice were treated with Ondansetron at the time of vaccination. Briefly, two groups of mice (n=4 per group) were vaccinated subcutaneously with 1 μg of ovalbumin in a liposomal adjuvant. The first group of mice received 3 mg/kg Ondansetron via i.p. injection at the time of vaccination, and at 12, 24, and 36 hours following vaccination. The second group of mice received no additional treatment following vaccination. A third group of mice received neither the vaccine nor the Ondansetron. Second vaccinations were repeated for the first two groups of mice 10 days following the initial vaccinations, and second Ondansetron treatments were repeated for the groups as described for the first cycle of vaccination.
# [7] = test system: spleen cells; test: IFNγ secretion of spleen cells in response to ovalbumin restimulation (cellular immunity); assay type: in vivo; settings: vaccinated mice treated concurrently with Losartan; restimulated in vitro 72 hours with 5 μg/ml ovalbumin; vs vaccine only; p<0.05 (FIG. 11)
# Description: Two groups of mice were immunized as noted in Example 7 above. To determine whether cellular immunity was enhanced in the Losartan-treated mice, mice from both the first and second groups were euthanized, and their spleen cells were assayed to determine IFNγ secretion levels in response to ovalbumin restimulation. Splenectomies and restimulation assays for cellular immune responses were performed as previously described (Mitchell et al. (2012), J. Immunology, supra). Spleen cells were restimulated in vitro for 72 hours with 5 μg/ml ovalbumin protein.
# [8] = test system: A20-HA tumors; test: A20 mouse B-cell lymphoma model, tumor vaccine responses; assay type: in vivo, mice
# Description: The A20 mouse B-cell lymphoma model was used to assess the effects of Ondansetron on tumor vaccine responses. Briefly, two groups of mice (n=5 per group) with established d3 A20-HA tumors (i.e., tumors expressing HA) were vaccinated weekly for 3 weeks with HA antigen (1 μg per mouse in liposome adjuvant), either without or with concurrently administered ondansetron (3 mg/kg i.p., administered 4 times at 12 h intervals). A third group of mice received neither the HA nor the Ondansetron. Tumor measurements were made using calipers every 2-3 days. Mice were sacrificed when their tumors reached a diameter of 1.5 cm.
# Labeled anti-CD11b antibodies were used to quantitate the numbers of infiltrating CD11b+ monocyte/macrophages in the tumor tissues.
# [9] = Table 2, Comparison of ARB Pharmacokinetics
compound,measurement,setting,value
CCCc1nc(C(C)(C)O)c(C(=O)O)n1Cc1ccc(-c2ccccc2-c2nnn[nH]2)cc1 [Olmesartan],Bioavailability,[1]; [9],29%
same,Biological Half-Life,[1]; [9],14-16 hours
CCCc1nc2c(C)cc(-c3nc4ccccc4n3C)cc2n1Cc1ccc(-c2ccccc2C(=O)O)cc1 [Telmisartan],Bioavailability,[1]; [9],42-58%
CCOc1nc2cccc(C(=O)O)c2n1Cc1ccc(-c2ccccc2-c2nnn[nH]2)cc1 [Candesartan],Bioavailability,[1]; [9],15%
same,Biological Half-Life,[1]; [9],9 hours
CCCCC1=NC2(CCCC2)C(=O)N1Cc1ccc(-c2ccccc2-c2nnn[nH]2)cc1 [Irbesartan],Biological Half-Life,[1]; [9],11-15 hours
CCCCc1nc(Cl)c(CO)n1Cc1ccc(-c2ccccc2-c2nn[nH]n2)cc1 [Losartan],human monocyte migration (THP-1) in vitro,[2],potently blocked human monocyte migration (THP-1) in vitro in a dose dependent manner
same,canine monocyte migration in vitro,"[3]; CCL2 (MCP-1) gradient, dose dependent, FIG. 2",potently blocked canine monocyte migration in vitro in a dose dependent manner
same,canine monocyte migration in the presence of MCP-1,[3]; concentrations of 1 μg/ml and 10 μg/ml,blocked canine monocyte migration even in the presence of MCP-1
same,migration of inflammatory monocytes to the draining lymph nodes,"[4]; 30 mg/kg Losartan at injection and 12 h after, p<0.05 (FIG. 6)",significantly reduced
same,monocyte migration in blood samples after treatment,"[5]; 3 dogs with cancer, 2 mg/kg/day for two weeks, pooled data, FIG. 8",Monocyte migration was inhibited
same,monocyte migration in blood samples after treatment,"[5]; healthy dogs, 2 mg/kg/day for 48 hours, vs before treatment, FIG. 7",significantly inhibited
same,anti-ovalbumin antibody titers,"[6]; 5 μg ovalbumin, 30 mg/kg Losartan at vaccination and 12, 24, 36 h after, p<0.05 (FIG. 9)",significantly higher anti-ovalbumin antibody titers
same,IFNγ production by spleen cells,[7],produced significantly more IFNγ
Cc1nccn1CC1CCc2c(c3ccccc3n2C)C1=O (centres unmarked) [Ondansetron],human monocyte migration (THP-1) in vitro,[2],potently blocked THP-1 monocyte migration in vitro in a dose dependent manner
same,migration of inflammatory monocytes to the draining lymph nodes,"[4]; 3 mg/kg Ondansetron IP at footpad injection and 12, 24, 36 h after, p<0.001 (FIG. 4, 5)",significantly reduced
same,anti-ovalbumin antibody titers,"[6]; 1 μg ovalbumin s.c. in liposomal adjuvant, 3 mg/kg Ondansetron i.p. at vaccination and 12, 24, 36 h after, p<0.05 (FIG. 10)",significantly higher anti-ovalbumin antibody titers
same,infiltrating CD11b+ monocyte/macrophages in tumor tissues,"[8]; immunohistochemistry, vaccine with Ondansetron vs vaccine alone, FIG. 13",markedly fewer monocyte/macrophages
same,tumor growth rates,"[8]; mice with A20-HA tumors, HA vaccine weekly for 3 weeks with ondansetron 3 mg/kg i.p. 4 times at 12 h intervals, vs vaccine only, FIG. 12",significantly reduced
same,Biological Half-Life,[1]; text b221,about 3.9 hours
